Assays:
[1] = Biodegradability in accordance with OECD 301 B
Procedure: (§1) For the cationic surfactant type 1 from Table 2, the biodegradability and toxicity was determined in accordance with OECD 301 B against algae.

[2] = tested on: algae; assay type: cell-based
Procedure: as §1

Biodegradability [1]: not degraded
SMILES: CCCCCCCCCCCCCCCCCCCCCC[N+](C)(C)C.[Cl-] [behentrimonium chloride]
Toxicity towards algae [2]: < 1 mg/L
